Values of other authors as cited in patent US20200085832A1, “DEUTERATED ANALOGS OF AN ORGANIC COMPOUND” (Agios Pharmaceuticals, Inc., priority 2019, published 2020).

Assays:
mutant IDH1 (mIDH1) = settings: D. Rohle et al. Science 340:626-630 (2013)
mutant IDH2 (mIDH2) = settings: D. Rohle et al. Science 340:626-630 (2013)
mIDH1-driven gliomas = settings: some model systems
mutant IDH1 = settings: biochemical and cellular assays
mutant IDH2 = settings: biochemical and cellular assays

SMILES	inhibition of mutant IDH1 (mutant IDH1 (mIDH1))	inhibition of mutant IDH2 (mutant IDH2 (mIDH2))	growth of mIDH1-driven gliomas (mIDH1-driven gliomas)	inhibitor of mutant IDH1 protein (mutant IDH1)	inhibitor of mutant IDH2 protein (mutant IDH2)
Cc1ccccc1C(C(=O)NC1CCCCC1)N(C(=O)Cn1ccnc1C)c1cccc(F)c1 (centres unmarked) [AGI-5198]	inhibit mutant IDH1 (mIDH1)	not mutant IDH2 (mIDH2)	repress growth of mIDH1-driven gliomas	–	–
C[C@@H](Nc1nc(N[C@H](C)C(F)(F)F)nc(-c2cccc(Cl)n2)n1)C(F)(F)F [Compound X, 6-(6-chloropyridin-2-yl)-N^2,N^4-bis((R)-1,1,1-trifluoropropan-2-yl)-1,3,5-triazine-2,4-diamine]	–	–	–	inhibitor of mutant IDH1 and IDH2 proteins	inhibitor of mutant IDH1 and IDH2 proteins
